The text below walks through data of PubChem BioAssay AID248 (DTP/NCI, 2004).

The test system of this assay is L1210 leukemia ip in BDF1 mice, survival T/C. The assay can be described thus: NCI In Vivo Anticancer Drug Screen. Data for tumor model L1210 Leukemia (intraperitoneal) in B6D2F1 (BDF1) mice. Conditions: higher = longer survival. The method in brief:
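Tumor cells were implanted, animals were treated, and survival was followed. The result divides the treated measurement by the vehicle-control measurement.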

[1] abbreviates: endpoint: mean survival time, dose: 100.0 mg/kg/injection, schedule: Q01DX001 (ip), vehicle: saline.
Where [2] appears, read: endpoint: mean survival time, dose: 100.0 mg/kg/injection, schedule: Q01DX009 (ip), vehicle: saline.
Setting [3] is: endpoint: mean survival time, dose: 200.0 mg/kg/injection, schedule: Q01DX001 (ip), vehicle: saline.
Setting [4] is: endpoint: mean survival time, dose: 200.0 mg/kg/injection, schedule: Q01DX009 (ip), vehicle: saline.
The mark [5] stands for this setting: endpoint: mean survival time, dose: 400.0 mg/kg/injection, schedule: Q01DX001 (ip), vehicle: saline.
The mark [6] stands for this setting: endpoint: mean survival time, dose: 400.0 mg/kg/injection, schedule: Q01DX009 (ip), vehicle: saline.

Toxic doses and inconclusive results are not listed. Numbered stars: 1 amine (or outer) side, 2 acyl side, 3 side chain; on linkers, the order of the positions; unused ones are H or OH. Bridge positions count the residues as written; N and C are the ends. Square brackets hold non-standard residues; d marks the D form. Peptide text beside a SMILES is read from it. I, II: the chains in the order shown. Actinocin(1to9) = Cc1c2oc3c(C)ccc(C(=O)[*:2])c3nc-2c(C(=O)[*:1])c(N)c1=O; NMeV = CN[CH](C(=O)O)C(C)C; Sar = CNCC(=O)O

As for `CCC(C)C1NC(=O)C(NC(=O)c2c3nc4c(C(=O)NC5C(=O)NC(C(C)CC)C(=O)N6CCCC6C(=O)N(C)CC(=O)N(C)C(C(C)C)C(=O)OC5C)ccc(C)c4oc-3c(C)c(=O)c2N)C(C)OC(=O)C(C(C)C)N(C)C(=O)CN(C)C(=O)C2CCCN2C1=O` (stereo not given) (I: TIP[Sar][NMeV] / II: TIP[Sar][NMeV]; ester I:1-I:C, II:1-II:C; linker I:N-II:N via Actinocin(1to9); configuration not given here), the T/C is 170 % of control (endpoint: mean survival time, dose: 0.1 mg/kg/injection, schedule: Q01DX009 (ip), vehicle: saline); 86 % of control (endpoint: mean survival time, dose: 0.4 mg/kg/injection, schedule: Q01DX009 (ip), vehicle: saline); 115 % of control (endpoint: mean survival time, dose: 2.5 micrograms/kg/injection, schedule: Q01DX009 (ip), vehicle: saline); 106 % of control (endpoint: mean survival time, dose: 3.1 micrograms/kg/injection, schedule: Q01DX001 (ip), vehicle: saline); 122 % of control (endpoint: mean survival time, dose: 6.0 micrograms/kg/injection, schedule: Q01DX009 (ip), vehicle: saline); 102 % of control (endpoint: mean survival time, dose: 6.3 micrograms/kg/injection, schedule: Q01DX001 (ip), vehicle: saline). For the same molecule, the T/C was 118 % of control (endpoint: mean survival time, dose: 10.0 micrograms/kg/injection, schedule: Q01DX009 (ip), vehicle: saline); 102 % of control (endpoint: mean survival time, dose: 12.5 micrograms/kg/injection, schedule: Q01DX001 (ip), vehicle: saline); 122 % of control (endpoint: mean survival time, dose: 12.5 micrograms/kg/injection, schedule: Q01DX009 (ip), vehicle: saline); 114 % of control (endpoint: mean survival time, dose: 25.0 micrograms/kg/injection, schedule: Q01DX001 (ip), vehicle: saline); 102 % of control (endpoint: mean survival time, dose: 50.0 micrograms/kg/injection, schedule: Q01DX001 (ip), vehicle: saline); 150 % of control (endpoint: mean survival time, dose: 50.0 micrograms/kg/injection, schedule: Q01DX009 (ip), vehicle: saline). For the same molecule, the T/C by setting is: (endpoint: mean survival time, dose: 59.4 micrograms/kg/injection, schedule: Q01DX009 (ip), vehicle: acetone) 160 % of control; (endpoint: mean survival time, dose: 90.0 micrograms/kg/injection, schedule: Q01DX009 (ip), vehicle: acetone) 102 % of control; (endpoint: mean survival time, dose: 100.0 micrograms/kg/injection, schedule: Q01DX001 (ip), vehicle: saline) 111 % of control; (endpoint: mean survival time, dose: 135.0 micrograms/kg/injection, schedule: Q01DX009 (ip), vehicle: acetone) 104 % of control; (endpoint: mean survival time, dose: 200.0 micrograms/kg/injection, schedule: Q01DX001 (ip), vehicle: saline) 117 % of control; (endpoint: median survival time, dose: 12.5 micrograms/kg/injection, schedule: Q01DX009 (ip), vehicle: water) 113 % of control. In addition, the T/C was 117 % of control (endpoint: median survival time, dose: 25.0 micrograms/kg/injection, schedule: Q01DX009 (ip), vehicle: water); 122 % of control (endpoint: median survival time, dose: 75.0 micrograms/kg/injection, schedule: Q04DX003 (ip), vehicle: water); 118 % of control (endpoint: median survival time, dose: 200.0 micrograms/kg/injection, schedule: Q01DX001 (ip), vehicle: water); 150 % of control (endpoint: median survival time, dose: 600.0 micrograms/kg/injection, schedule: Q04DX003 (ip), vehicle: water).
As for `Cc1cnc(N(C)CC(=O)O)nc1-c1ccccc1O`, the T/C reads like this: (endpoint: mean survival time, dose: 100.0 mg/kg/injection, schedule: Q04DX002 (ip), vehicle: Klucel (hydroxypropylcellulose) (HPC)) 96 % of control; (endpoint: mean survival time, dose: 200.0 mg/kg/injection, schedule: Q04DX002 (ip), vehicle: Klucel (hydroxypropylcellulose) (HPC)) 89 % of control.
For `Cc1cc(C)c(C(=O)OCCN(C)C)c(C)c1`, the T/C is 110 % of control (endpoint: mean survival time, dose: 75.0 mg/kg/injection, schedule: Q01DX001 (ip), vehicle: saline) and 98 % of control (endpoint: mean survival time, dose: 150.0 mg/kg/injection, schedule: Q01DX001 (ip), vehicle: saline).
For `F[Si](c1ccccc1)(c1ccccc1)c1cccc2ccccc12`, the T/C was 96 % of control (endpoint: mean survival time, dose: 100.0 mg/kg/injection, schedule: Q01DX001 (ip), vehicle: saline with Tween-80); 98 % of control (endpoint: mean survival time, dose: 100.0 mg/kg/injection, schedule: Q01DX009 (ip), vehicle: saline with Tween-80); 102 % of control (endpoint: mean survival time, dose: 200.0 mg/kg/injection, schedule: Q01DX001 (ip), vehicle: saline with Tween-80); 92 % of control (endpoint: mean survival time, dose: 200.0 mg/kg/injection, schedule: Q01DX009 (ip), vehicle: saline with Tween-80); 94 % of control (endpoint: mean survival time, dose: 400.0 mg/kg/injection, schedule: Q01DX001 (ip), vehicle: saline with Tween-80); 93 % of control (endpoint: mean survival time, dose: 400.0 mg/kg/injection, schedule: Q01DX009 (ip), vehicle: saline with Tween-80).
Take `Cc1ccc(C(=O)OCC2OC(n3cnc4c(=S)nc(N)[nH]c43)C(OC(=O)c3ccc(C)cc3)C2OC(=O)c2ccc(C)cc2)cc1` (stereo not given): the T/C is, setting by setting: under setting [1], 95 % of control; under setting [2], 106 % of control; under setting [3], 101 % of control; under setting [4], 112 % of control; (endpoint: mean survival time, dose: 400.0 mg/kg/injection, schedule: Q01DX001 (ip), vehicle: carboxymethylcellulose (CMC)) 111 % of control; under setting [5], 106 % of control. Further, the T/C runs as follows: under setting [6], 116 % of control; (endpoint: mean survival time, dose: 600.0 mg/kg/injection, schedule: Q01DX001 (ip), vehicle: carboxymethylcellulose (CMC)) 105 % of control; (endpoint: mean survival time, dose: 800.0 mg/kg/injection, schedule: Q01DX001 (ip), vehicle: carboxymethylcellulose (CMC)) 119 % of control; (endpoint: mean survival time, dose: 800.0 mg/kg/injection, schedule: Q01DX009 (ip), vehicle: saline) 172 % of control; (endpoint: mean survival time, dose: 1000.0 mg/kg/injection, schedule: Q01DX001 (ip), vehicle: carboxymethylcellulose (CMC)) 116 % of control.
As for `Oc1cc2c(cc1O)C1c3ccc(O)c(O)c3OCC1(O)C2` (stereo not given), the T/C is 102 % of control under setting [2]; 110 % of control (endpoint: mean survival time, dose: 100.0 mg/kg/injection, schedule: Q04DX003 (ip), vehicle: saline); 104 % of control under setting [4]; 104 % of control (endpoint: mean survival time, dose: 200.0 mg/kg/injection, schedule: Q04DX003 (ip), vehicle: saline); 101 % of control under setting [6]; 102 % of control (endpoint: mean survival time, dose: 400.0 mg/kg/injection, schedule: Q04DX003 (ip), vehicle: saline).
For the molecule `CCCCCCCCCCCCC(C)(OO)C(=O)OC` (stereo not given), the T/C is 100 % of control (endpoint: mean survival time, dose: 15.0 mg/kg/injection, schedule: Q04DX002 (ip), vehicle: saline with Tween-80); 91 % of control (endpoint: mean survival time, dose: 30.0 mg/kg/injection, schedule: Q04DX002 (ip), vehicle: saline with Tween-80); 95 % of control (endpoint: mean survival time, dose: 160.0 mg/kg/injection, schedule: Q04DX002 (ip), vehicle: saline with Tween-80).
On to `S=C(Cc1ccc2ccccc2c1)N1CCN(c2ccccc2)CC1`, for which the T/C reads like this: (endpoint: mean survival time, dose: 100.0 mg/kg/injection, schedule: Q01DX001 (ip), vehicle: olive oil, sesame oil, peanut oil) 92 % of control; (endpoint: mean survival time, dose: 100.0 mg/kg/injection, schedule: Q04DX003 (sc), vehicle: olive oil, sesame oil, peanut oil) 100 % of control; (endpoint: mean survival time, dose: 200.0 mg/kg/injection, schedule: Q01DX001 (ip), vehicle: olive oil, sesame oil, peanut oil) 97 % of control; (endpoint: mean survival time, dose: 200.0 mg/kg/injection, schedule: Q04DX003 (sc), vehicle: olive oil, sesame oil, peanut oil) 111 % of control; (endpoint: mean survival time, dose: 400.0 mg/kg/injection, schedule: Q01DX001 (ip), vehicle: olive oil, sesame oil, peanut oil) 97 % of control; (endpoint: mean survival time, dose: 400.0 mg/kg/injection, schedule: Q04DX003 (sc), vehicle: olive oil, sesame oil, peanut oil) 107 % of control.
With `Nc1cc(=O)[nH]c(=S)n1-c1ccc(I)cc1`, the T/C reads like this: (endpoint: mean survival time, dose: 50.0 mg/kg/injection, schedule: Q01DX001 (ip), vehicle: saline) 100 % of control; under setting [1], 106 % of control; under setting [3], 102 % of control; under setting [5], 100 % of control.
Take `C/C(=N\O)C(O)c1ccccc1` (stereo not given): the T/C is, setting by setting: (endpoint: mean survival time, dose: 50.0 mg/kg/injection, schedule: Q01DX001 (ip), vehicle: other) 97 % of control; (endpoint: mean survival time, dose: 100.0 mg/kg/injection, schedule: Q01DX001 (ip), vehicle: other) 89 % of control; (endpoint: mean survival time, dose: 200.0 mg/kg/injection, schedule: Q01DX001 (ip), vehicle: other) 97 % of control; (endpoint: mean survival time, dose: 400.0 mg/kg/injection, schedule: Q01DX001 (ip), vehicle: other) 92 % of control.
Regarding `NCC1OC(OC2C(N)CC(N)C(O)C2O)C(NC(=O)c2ccccc2)C(O)C1O` (stereo not given), the T/C by setting is: (endpoint: mean survival time, dose: 100.0 mg/kg/injection, schedule: Q04DX003 (ip), vehicle: Klucel (hydroxypropylcellulose) (HPC)) 91 % of control; (endpoint: mean survival time, dose: 200.0 mg/kg/injection, schedule: Q04DX003 (ip), vehicle: Klucel (hydroxypropylcellulose) (HPC)) 96 % of control; (endpoint: mean survival time, dose: 400.0 mg/kg/injection, schedule: Q04DX003 (ip), vehicle: Klucel (hydroxypropylcellulose) (HPC)) 91 % of control.
For `O=c1[nH]cc(CC(F)(F)C(F)(F)F)c(=O)[nH]1`, the T/C (endpoint: mean survival time, dose: 50.0 mg/kg/injection, schedule: Q01DX005 (ip), vehicle: other) is 87 % of control.
